According to article PMC2196313 (The Journal of Experimental Medicine, 1997):

Legend:
[1] = system: CTL clone E8; format: cell-based, mouse (C57BL/6)
[2] = system: CTL clone 4G3; format: cell-based, mouse
[3] = system: CTL clone B3; details: cited from earlier work
[4] = system: CTL clone E8; format: cell-based, mouse (C57BL/6); remark: listed apart in the source
[5] = system: TCR of CTL clone G9a; format: cell-based, mouse (C57BL/6)

Row | Substance | inhibition of specific target cell lysis by clone E8 [1] | inhibition of specific target cell lysis by clone 4G3 [2] | antagonism for clone B3 [3] | cold target inhibition of lysis by clone E8 [4] | inhibition of agonist-induced loss of surface TCR on clone G9a [5]
1 | SIIG FEK ^* L [O7(N4G)] | comparatively poor inhibitors | most sensitive | potent antagonist | – | –
2 | SIIR FEK ^* L [O7(N4R)] | no effect within the concentration range tested | – | – | indistinguishable from RMA cells without added peptide | had no effect
